Measured values reported in ChEMBL document CHEMBL3132851, “Achieving improved permeability by hydrogen bond donor modulation in a series of MGAT2 inhibitors” (Medchemcomm, 2013).
Values after ≈ are worked out from the molar mass of the structure shown.

Key:
[1] = (§1) Apparent permeability of the compound from apical to basolateral side in human Caco2 cells; conditions: Caco-2, Papp
[2] = Lipophilicity, log D of the compound at pH 7.4 after 30 mins by shake-flask method; conditions: buffer; for logD at 0.5 h: pH 7.4, logD; for logD: pH 7.4, 0.5 h, 0.5 h
[3] = biological target: 2-acylglycerol O-acyltransferase 2 (Homo sapiens, UniProt Q3SYC2); assay: Inhibition of human MGAT2 by Rapidfire LCMS assay
[4] = Bioavailability in mouse at 50 mg/kg, po and 1 mg/kg, iv; format: ADME, organism-based; conditions: in vivo
[5] = Half life in mouse at 1 mg/kg, iv; format: ADME, organism-based; set-up: dose 1 mg/kg, route intravenous; conditions: in vivo
[6] = Volume of distribution at steady state in mouse at 50 mg/kg, po and 1 mg/kg, iv; format: ADME, organism-based; conditions: in vivo, read-out: Vdss
[7] = Plasma clearance in mouse at 50 mg/kg, po and 1 mg/kg, iv; format: ADME, organism-based
[8] = Aqueous solubility of the compound in phosphate buffer at pH 7.4 after 24 hrs by LC-UVMS analysis; format: physicochemical
[9] = Unbound fraction in human plasma by equilibrium dialysis method; format: ADME, cell-free
[10] = Unbound fraction in mouse plasma by equilibrium dialysis method; format: ADME, cell-free
[11] = Unbound fraction in rat plasma by equilibrium dialysis method; format: ADME, cell-free
Cytochrome P450 2C19 = Cytochrome P450 2C19 (Homo sapiens, UniProt P33261); assay: Inhibition of CYP2C19 (unknown origin); format: ADME
Cytochrome P450 3A4 = Cytochrome P450 3A4 (Homo sapiens, UniProt P08684); assay: Inhibition of CYP3A4 (unknown origin); format: ADME
Cytochrome P450 2D6 = Cytochrome P450 2D6 (Homo sapiens, UniProt P10635); assay: Inhibition of CYP2D6 (unknown origin); format: ADME
Cytochrome P450 2C9 = Cytochrome P450 2C9 (Homo sapiens, UniProt P11712); assay: Inhibition of CYP2C9 (unknown origin); format: ADME
Cytochrome P450 1A2 = biological target: T1, Cytochrome P450 1A2 (Homo sapiens, UniProt P05177); assay: Inhibition of CYP1A2 (unknown origin); format: ADME
T1 sequence (P05177 whole entry): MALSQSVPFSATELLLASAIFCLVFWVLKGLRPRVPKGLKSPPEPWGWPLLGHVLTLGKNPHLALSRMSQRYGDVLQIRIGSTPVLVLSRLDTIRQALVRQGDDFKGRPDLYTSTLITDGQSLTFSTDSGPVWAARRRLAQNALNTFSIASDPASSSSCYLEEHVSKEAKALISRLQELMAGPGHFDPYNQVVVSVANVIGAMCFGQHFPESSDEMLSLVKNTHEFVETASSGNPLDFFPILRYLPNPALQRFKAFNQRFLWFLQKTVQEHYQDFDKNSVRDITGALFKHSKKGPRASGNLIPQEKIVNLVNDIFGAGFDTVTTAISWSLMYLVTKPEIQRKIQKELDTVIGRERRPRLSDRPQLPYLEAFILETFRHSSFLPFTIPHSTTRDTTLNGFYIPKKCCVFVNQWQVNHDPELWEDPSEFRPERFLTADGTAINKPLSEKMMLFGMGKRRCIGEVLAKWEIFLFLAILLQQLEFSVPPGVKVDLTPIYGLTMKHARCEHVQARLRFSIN

[12] = Half life in rat at 3 mg/kg, po; format: ADME, organism-based; set-up: dose 3 mg/kg, route oral; conditions: in vivo
[13] = Bioavailability in rat at 3 mg/kg, po and 1 mg/kg, iv; format: ADME, organism-based; conditions: in vivo
[14] = Half life in rat at 1 mg/kg, iv; format: ADME, organism-based; set-up: dose 1 mg/kg, route intravenous; conditions: in vivo
[15] = Volume of distribution at steady state in rat at 3 mg/kg, po and 1 mg/kg, iv; format: ADME, organism-based; conditions: in vivo, read-out: Vdss
[16] = Plasma clearance in rat at 3 mg/kg, po and 1 mg/kg, iv; format: ADME, organism-based
[17] = Half life in mouse at 50 mg/kg, po; format: ADME, organism-based; set-up: dose 50 mg/kg, route oral; conditions: in vivo
Caco-2 = assay: as §1; conditions: caco-2

Chain of 2-acylglycerol O-acyltransferase 2 (Q3SYC2 whole entry): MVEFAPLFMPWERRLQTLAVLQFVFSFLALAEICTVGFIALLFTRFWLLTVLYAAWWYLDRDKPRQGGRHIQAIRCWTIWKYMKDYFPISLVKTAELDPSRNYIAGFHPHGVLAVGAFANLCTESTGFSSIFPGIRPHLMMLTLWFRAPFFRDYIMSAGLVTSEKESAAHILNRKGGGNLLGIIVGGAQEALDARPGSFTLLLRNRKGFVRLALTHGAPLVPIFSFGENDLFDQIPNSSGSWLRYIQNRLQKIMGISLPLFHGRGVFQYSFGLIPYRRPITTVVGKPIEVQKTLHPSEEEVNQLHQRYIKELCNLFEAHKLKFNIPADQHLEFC
Chain of Cytochrome P450 3A4 (P08684 whole entry): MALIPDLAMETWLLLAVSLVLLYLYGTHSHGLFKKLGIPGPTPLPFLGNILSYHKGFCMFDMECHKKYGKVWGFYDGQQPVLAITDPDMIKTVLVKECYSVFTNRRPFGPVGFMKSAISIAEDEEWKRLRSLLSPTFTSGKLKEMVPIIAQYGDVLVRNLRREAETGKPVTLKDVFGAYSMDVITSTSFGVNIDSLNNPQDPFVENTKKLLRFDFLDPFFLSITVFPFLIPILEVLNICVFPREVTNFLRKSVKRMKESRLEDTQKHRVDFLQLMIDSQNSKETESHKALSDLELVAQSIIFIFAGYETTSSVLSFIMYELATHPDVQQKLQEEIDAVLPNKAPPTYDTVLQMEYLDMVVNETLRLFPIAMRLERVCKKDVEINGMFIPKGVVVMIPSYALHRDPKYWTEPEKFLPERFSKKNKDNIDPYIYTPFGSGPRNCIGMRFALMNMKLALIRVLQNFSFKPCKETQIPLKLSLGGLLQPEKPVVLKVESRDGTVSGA
Chain of Cytochrome P450 2C19 (P33261 whole entry): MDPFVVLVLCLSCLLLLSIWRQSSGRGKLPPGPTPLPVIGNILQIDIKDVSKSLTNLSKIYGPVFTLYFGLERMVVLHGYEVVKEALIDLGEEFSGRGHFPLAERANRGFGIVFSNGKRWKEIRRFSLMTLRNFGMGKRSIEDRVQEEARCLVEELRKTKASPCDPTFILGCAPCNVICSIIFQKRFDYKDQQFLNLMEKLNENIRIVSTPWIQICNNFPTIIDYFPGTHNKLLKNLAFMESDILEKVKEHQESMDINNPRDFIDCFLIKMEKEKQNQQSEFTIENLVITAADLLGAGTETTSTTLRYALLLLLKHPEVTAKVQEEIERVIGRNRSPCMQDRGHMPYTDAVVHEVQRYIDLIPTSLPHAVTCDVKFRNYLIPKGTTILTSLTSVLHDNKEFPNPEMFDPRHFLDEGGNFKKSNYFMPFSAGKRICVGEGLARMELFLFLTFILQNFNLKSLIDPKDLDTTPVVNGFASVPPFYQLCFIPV
Chain of Cytochrome P450 2C9 (P11712 whole entry): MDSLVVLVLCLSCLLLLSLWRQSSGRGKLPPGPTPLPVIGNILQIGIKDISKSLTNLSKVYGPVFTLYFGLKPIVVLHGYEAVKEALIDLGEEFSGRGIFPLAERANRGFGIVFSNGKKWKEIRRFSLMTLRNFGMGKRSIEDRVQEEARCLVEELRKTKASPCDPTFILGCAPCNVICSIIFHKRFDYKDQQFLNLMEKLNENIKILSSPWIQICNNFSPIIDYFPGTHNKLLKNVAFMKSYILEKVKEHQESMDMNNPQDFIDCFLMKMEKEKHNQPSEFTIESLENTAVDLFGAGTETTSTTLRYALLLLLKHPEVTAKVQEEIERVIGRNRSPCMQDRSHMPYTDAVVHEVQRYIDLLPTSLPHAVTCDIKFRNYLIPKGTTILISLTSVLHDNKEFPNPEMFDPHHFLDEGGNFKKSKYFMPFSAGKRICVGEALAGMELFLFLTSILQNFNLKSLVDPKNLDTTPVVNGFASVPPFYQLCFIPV
Chain of Cytochrome P450 2D6 (P10635 whole entry): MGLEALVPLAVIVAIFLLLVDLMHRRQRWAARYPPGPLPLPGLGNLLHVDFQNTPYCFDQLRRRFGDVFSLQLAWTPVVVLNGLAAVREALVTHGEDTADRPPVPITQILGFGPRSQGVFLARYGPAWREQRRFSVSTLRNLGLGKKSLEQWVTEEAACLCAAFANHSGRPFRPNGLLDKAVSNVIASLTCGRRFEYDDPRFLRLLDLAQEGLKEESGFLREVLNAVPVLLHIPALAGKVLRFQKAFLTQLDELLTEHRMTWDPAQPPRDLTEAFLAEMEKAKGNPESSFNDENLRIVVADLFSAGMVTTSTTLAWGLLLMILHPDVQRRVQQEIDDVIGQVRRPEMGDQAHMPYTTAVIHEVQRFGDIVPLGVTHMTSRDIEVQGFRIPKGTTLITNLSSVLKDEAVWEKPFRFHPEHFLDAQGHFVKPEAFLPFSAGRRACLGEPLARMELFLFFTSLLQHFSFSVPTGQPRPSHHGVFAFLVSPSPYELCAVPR

| Structure (SMILES) | Papp A→B [1] | logD at 0.5 h [2] | IC50 [3] | also measured |
| --- | --- | --- | --- | --- |
| CCc1cc(S(=O)(=O)Nc2ccc(F)cc2F)cc2c1NC(=O)C(C)(CC)NC2=O (racemic) | 24 ×10⁻⁶ cm/s | 2.1 | 4 nM | – |
| COc1cc2c(cc1S(=O)(=O)Nc1ccc(C(F)(F)F)cc1)C(=O)NC(C)(C)C(=O)N2 | 1 ×10⁻⁶ cm/s | 2.8 | 7610 nM | – |
| CC1(C)NC(=O)c2c(ccc(S(=O)(=O)Nc3ccc(C(F)(F)F)cc3)c2F)NC1=O | 4 ×10⁻⁶ cm/s | 2.4 | 40400 nM | – |
| COc1cc(S(=O)(=O)Nc2ccc(C(F)(F)F)cc2)cc2c1NC(=O)C(C)(C)NC2=O | 12 ×10⁻⁶ cm/s | 2.6 | 109 nM | – |
| CCC1(C)NC(=O)c2cc(S(=O)(=O)Nc3ccc(F)cc3F)cc(Cl)c2NC1=O (stereo not drawn) | 35 ×10⁻⁶ cm/s | 1.9 | 9 nM | bioavailability [4]: 74%; half-life [5]: 0.2 h; Vd [6]: 0.5 L/kg; clearance [7]: 29 mL/min/kg; solubility at 24 h [8]: 150 µM (≈ 66.6 µg/mL); fraction unbound [9]: 0.017; fraction unbound [10]: 0.037; fraction unbound [11]: 0.03; IC50 (Cytochrome P450 2C19): 27000 nM; IC50 (Cytochrome P450 3A4): > 30000 nM; IC50 (Cytochrome P450 2D6): > 30000 nM; IC50 (Cytochrome P450 2C9): > 30000 nM; IC50 (Cytochrome P450 1A2): > 30000 nM; half-life [12]: 2.4 h; bioavailability [13]: 69%; half-life [14]: 1.3 h; Vd [15]: 0.4 L/kg; clearance [16]: 4.1 mL/min/kg; half-life [17]: 1.2 h |
| Cc1cc2c(cc1S(=O)(=O)Nc1ccc(C(F)(F)F)cc1)C(=O)NC(C)(C)C(=O)N2 | – | – | 13400 nM | – |
| CCC1(C)NC(=O)c2cc(S(=O)(=O)Nc3ccc(C(F)(F)F)cc3OC)cc(Cl)c2NC1=O (stereo not drawn) | 58 ×10⁻⁶ cm/s | 3 | 7 nM | – |
| Cc1cc(S(=O)(=O)Nc2ccc(C(F)(F)F)cc2)cc2c1NC(=O)C(C)(C)NC2=O | 7 ×10⁻⁶ cm/s | 2.6 | 52 nM | – |
| CC1(C)NC(=O)c2cc(S(=O)(=O)Nc3ccc(C(F)(F)F)cc3)c(F)cc2NC1=O | – | – | 1490 nM | – |
| CCC1(C)NC(=O)c2cc(S(=O)(=O)Nc3ccc(F)cc3F)cc(OC)c2NC1=O (racemic) | 22 ×10⁻⁶ cm/s | 1.8 | 10 nM | – |
| COc1c(S(=O)(=O)Nc2ccc(C(F)(F)F)cc2)ccc2c1C(=O)NC(C)(C)C(=O)N2 | 7 ×10⁻⁶ cm/s | 1.9 | > 100000 nM | – |
| CCC1(C)NC(=O)c2cc(S(=O)(=O)Nc3ccc(C)cc3C#N)cc(Cl)c2NC1=O (single isomer, unassigned) | 11 ×10⁻⁶ cm/s | 0.6 | 117 nM | – |
| CC[C@]1(C)NC(=O)c2cc(S(=O)(=O)Nc3ccc(C(F)(F)F)cc3F)ccc2NC1=O | 9 ×10⁻⁶ cm/s | 1.7 | 12 nM | – |
| CC[C@]1(C)NC(=O)c2cc(S(=O)(=O)Nc3ccc(F)cc3F)ccc2NC1=O | 8 ×10⁻⁶ cm/s | 1.7 | – | – |
| CCC1(C)NC(=O)c2cc(S(=O)(=O)Nc3ccc(F)cc3F)cc(C)c2NC1=O (single isomer, unassigned; enantiomer 2) | 14 ×10⁻⁶ cm/s | 5.4 | 62 nM | – |
| Cc1c(S(=O)(=O)Nc2ccc(C(F)(F)F)cc2)ccc2c1C(=O)NC(C)(C)C(=O)N2 | 9 ×10⁻⁶ cm/s | – | 13600 nM | – |
| CCC1(C)NC(=O)c2cc(S(=O)(=O)Nc3ccc(C)cc3C#N)cc(Cl)c2NC1=O (single isomer, unassigned; enantiomer 1) | – | – | 23 nM | Papp (Caco-2): 14 ×10⁻⁶ cm/s; logD [2]: 0.4 |
| CC1(C)NC(=O)c2cc(S(=O)(=O)Nc3ccc(C(F)(F)F)cc3)ncc2NC1=O | 1 ×10⁻⁶ cm/s | 1.6 | 10500 nM | – |
| CC1(C)NC(=O)c2cc(S(=O)(=O)Nc3ccc(C(F)(F)F)cc3)cc(F)c2NC1=O | 14 ×10⁻⁶ cm/s | 2.3 | 1950 nM | – |
| CCC1(C)NC(=O)c2cc(S(=O)(=O)Nc3ccc(C(F)(F)F)cc3F)cc(Cl)c2NC1=O (stereo not drawn) | 29 ×10⁻⁶ cm/s | 1.8 | 12 nM | – |
| CC1(C)NC(=O)c2cc(S(=O)(=O)Nc3ccc(C(F)(F)F)cc3)ccc2NC1=O | 6 ×10⁻⁶ cm/s | 2.6 | 911 nM | – |
| CC1(C)NC(=O)c2cc(S(=O)(=O)Nc3ccc(F)cc3F)cc(C#N)c2NC1=O | 3 ×10⁻⁶ cm/s | – | 405 nM | – |
| CC1(C)NC(=O)c2cc(S(=O)(=O)Nc3ccc(C(F)(F)F)cc3)cnc2NC1=O | 10 ×10⁻⁶ cm/s | 1.8 | > 66000 nM | – |
| Cc1cc(S(=O)(=O)Nc2ccc(F)cc2F)cc2c1NC(=O)C(C)(C)NC2=O | 10 ×10⁻⁶ cm/s | 1.4 | 16 nM | – |
| CC1(C)NC(=O)c2cc(S(=O)(=O)Nc3ccc(F)cc3F)cc(C(F)(F)F)c2NC1=O | 46 ×10⁻⁶ cm/s | 1.9 | 30 nM | – |
| CC1(C)NC(=O)c2cc(S(=O)(=O)Nc3ccc(F)cc3F)ccc2NC1=O | 5 ×10⁻⁶ cm/s | 1.3 | 58 nM | – |
| CCC1(C)NC(=O)c2cc(S(=O)(=O)Nc3ccc(F)cc3F)cc(C)c2NC1=O (single isomer, unassigned) | – | – | 7 nM | Papp (Caco-2): 9 ×10⁻⁶ cm/s; logD [2]: 6.5 |
